Peptide text beside a SMILES is read from it.
Assays:
[1] = target: T1, human amylin 3(a) receptor (human calcitonin receptor + RAMP-3), BHK570 cells (Homo sapiens, UniProt O60896+P30988); assay: Assay (II)b functional CRE-luciferase assay without albumin, human amylin receptor; format: cell-based; settings: Tested without HSA; read-out: hAmylin-R funct. EC50
T1 construct: host or cells: BHK570
Excerpt: (§1) Assay(II)b—Human Calcitonin and Amylin Receptor Assay without Albumin
(§2) 1. Luciferase Assay Outline
(§3) Activation of calcitonin and amylin (co-expression of calcitonin receptor and receptor activity modifying proteins (RAMP)) receptors lead to increased intracellular concentrations of cAMP. Consequently, transcription is activated by promoters containing multiple copies of the cAMP response element (CRE). It is thus possible to measure amylin activity by the use of a CRE luciferase reporter gene introduced into BHK cells also expressing calcitonin or amylin receptors.
(§4) 2. Construction of Calcitonin (a)—and Amylin 3(a)—Receptor/CRE-Luc Cell Line.
(§5) A BHK570 cell line was stably transfected with the human calcitonin receptor and a CRE-responsive luciferase reporter gene (Hollex-1 cell line, obtained from ZymoGenetics described in U.S. Pat. No. 5,622,839). The cell line was further transfected with RAMP-3, using standard methods. This turns the calcitonin receptor into an amylin 3(a) receptor. Methotrexate, Neomycin, and Hygromycin are selection markers for luciferase, the calcitonin receptor, and RAMP-3, respectively. To prepare the batches of frozen cells used in the luciferase assay described in the section below, the cells were cultured in growth medium (DMEM with 10% FBS, 1% Pen/Strep and 1 mM Napyruvate). […] Cells at approximately 80-90% confluence were washed with PBS and loosened from the plates with Versene. After centrifugation (2 min, 1300 rpm, in a Centrion Scientific centriuge C2 series with a BRK 5510 rotor head), the cell pellet was dissolved in 10% DMSO, 30% FBS and 60% growth medium and frozen (−80° C.) until utilization.
(§6) The day before the experiment, BHK calcitonin (a) receptor- or amylin 3(a)-receptor/CRE-luc cells were thawed, washed twice, and seeded in 40 μl growth medium on white 384 well culture plates (4.000 cells/well). On the assay day, the cells were washed 3 times in assay media (Dulbecco media W/o phenol red, 500 ml (Gibco, 11880-028); 0.1% ovalbumin; 10 mM Hepes pH 7.4; 1× Glutamin; 1% Pen/Strep). Then, 30 μl/well of sample diluted in assay buffer was added. After 3 hours of incubation at 37° C. and 5% CO2, the reaction was terminated by adding 30 μl/well SteadyLite Plus™. The plates were shaken at 300 rpm for 5 min at RT. Then, the plates were sealed and incubated at room temperature for 30 minutes. Finally, luminescence was tested on a TopCounter (Packard) in SPC (single photon counting) mode.
(§7) Additional Comment Regarding Use of Data Retrieved Via this Method
(§8) For the same reasons, measurements made in Assay IIa should not be compared in Assay IIb.

[2] = target: T2, human calcitonin (a) receptor, BHK570 cells (Homo sapiens, UniProt P30988); assay: Assay (II)b functional CRE-luciferase assay without albumin, human calcitonin receptor; format: cell-based; settings: Tested without HSA; read-out: hCTR funct. EC50
T2 construct: host or cells: BHK570
T2 sequence (P30988 25-474): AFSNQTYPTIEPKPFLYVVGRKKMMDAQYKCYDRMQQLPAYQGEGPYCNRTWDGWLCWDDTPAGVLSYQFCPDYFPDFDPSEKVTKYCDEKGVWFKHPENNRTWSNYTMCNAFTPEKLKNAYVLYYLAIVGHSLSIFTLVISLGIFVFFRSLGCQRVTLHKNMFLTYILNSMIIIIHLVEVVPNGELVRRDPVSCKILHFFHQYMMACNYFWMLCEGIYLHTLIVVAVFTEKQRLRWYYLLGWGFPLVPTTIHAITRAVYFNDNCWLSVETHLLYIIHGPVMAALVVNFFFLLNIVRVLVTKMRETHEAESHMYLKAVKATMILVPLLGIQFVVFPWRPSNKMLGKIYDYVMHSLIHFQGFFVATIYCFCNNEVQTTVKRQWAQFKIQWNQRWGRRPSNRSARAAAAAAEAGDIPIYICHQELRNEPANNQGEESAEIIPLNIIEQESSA
Excerpt: as §1, §2, §3, §4, §5, §6, §7, §8

[3] = target: T3, human amylin receptor (human calcitonin receptor + human RAMP3), BHK tk'ts 13 cells (Homo sapiens, UniProt O60896+P30988); assay: Assay (Va) binding to the human amylin receptor (whole cell); settings: read-out: hAmylin-R binding IC50
T3 construct: expressed in transfected cells; host or cells: BHK tk'ts 13
T3 sequence (O60896 24-148, one chain of several): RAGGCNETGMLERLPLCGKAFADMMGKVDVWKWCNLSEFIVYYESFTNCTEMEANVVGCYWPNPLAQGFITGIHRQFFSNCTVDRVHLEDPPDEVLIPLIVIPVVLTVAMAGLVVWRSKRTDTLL
Method: The day before the assay the cells were Seeded into Poly-D-Lysin coated 384W Opaque White, BD BioCoat plates (10000 cells/well) and Incubated overnight at 37° C., 5% CO2, 95% humidity.

T1 sequence (O60896 24-148, one chain of several): as above

Structure (SMILES) | EC50 [1] [pM] | EC50 [2] [pM] | IC50 [3] [pM]
CC(C)C[C@H](NC(=O)[C@H](C)NC(=O)[C@H](C)NC(=O)[C@@H](NC(=O)[C@H](CO)NC(=O)[C@H](CC(C)C)NC(=O)[C@H](CCC(=O)O)NC(=O)[C@H](CO)NC(=O)[C@H](C)N)[C@@H](C)O)C(=O)NCC(=O)N[C@@H](Cc1c[nH]cn1)C(=O)N[C@@H](CC(C)C)C(=O)N[C@@H](CO)C(=O)N[C@@H](C)C(=O)N[C@@H](CCC(=O)O)C(=O)N[C@@H](CC(C)C)C(=O)N[C@@H](Cc1c[nH]cn1)C(=O)N[C@@H](CCC(=O)O)C(=O)N[C@@H](CC(C)C)C(=O)N[C@@H](C)C(=O)N[C@H](C(=O)N[C@@H](CC(C)C)C(=O)N1CCC[C@H]1C(=O)N[C@@H](CCCNC(=N)N)C(=O)N[C@H](C(=O)N[C@@H](CCC(=O)O)C(=O)N[C@H](C(=O)NCC(=O)N[C@@H](CO)C(=O)NCC(=O)N[C@@H](CO)C(=O)N1CCC[C@H]1C(N)=O)[C@@H](C)O)[C@@H](C)O)[C@@H](C)O [72bb, H—ASELSTAALGHLSAELHELATLPRTETGSGSP—NH2] (H-ASELSTAALGHLSAELHELATLPRTETGSGSP-NH2) | 14 | 3 | 5100
CC(C)C[C@H](NC(=O)[C@H](CCC(=O)O)NC(=O)[C@H](Cc1c[nH]cn1)NC(=O)[C@H](CC(C)C)NC(=O)[C@H](CCC(=O)O)NC(=O)[C@H](C)NC(=O)[C@H](CO)NC(=O)[C@H](CC(C)C)NC(=O)[C@H](CCCNC(=N)N)NC(=O)CNC(=O)[C@H](CC(C)C)NC(=O)[C@@H](NC(=O)[C@H](C)NC(=O)[C@@H](NC(=O)[C@@H](NC(=O)[C@H](CC(C)C)NC(=O)[C@H](CCC(=O)O)NC(=O)[C@H](CO)NC(=O)[C@H](C)N)[C@@H](C)O)[C@@H](C)O)C(C)C)C(=O)N[C@@H](C)C(=O)N[C@H](C(=O)N[C@@H](CC(C)C)C(=O)N1CCC[C@H]1C(=O)N[C@@H](CCCNC(=N)N)C(=O)N[C@H](C(=O)N[C@@H](CCC(=O)O)C(=O)N[C@H](C(=O)NCC(=O)N[C@H](C(=O)NCC(=O)N[C@H](C(=O)N1CCC[C@H]1C(N)=O)[C@@H](C)O)[C@@H](C)O)[C@@H](C)O)[C@@H](C)O)[C@@H](C)O [95bb, H—ASELTTAVLGRLSAELHELATLPRTETGTGTP—NH2] (H-ASELTTAVLGRLSAELHELATLPRTETGTGTP-NH2) | 46 | 9 | 20200
CC(C)C[C@H](NC(=O)[C@H](CCCNC(=N)N)NC(=O)CNC(=O)[C@H](CC(C)C)NC(=O)[C@@H](NC(=O)[C@H](C)NC(=O)[C@@H](NC(=O)[C@@H](NC(=O)[C@H](CC(C)C)NC(=O)[C@H](CCC(=O)O)NC(=O)[C@H](CO)NC(=O)[C@H](C)N)[C@@H](C)O)[C@@H](C)O)C(C)C)C(=O)N[C@@H](CCC(=O)O)C(=O)N[C@@H](C)C(=O)N[C@@H](CCC(=O)O)C(=O)N[C@@H](CC(C)C)C(=O)N[C@@H](Cc1c[nH]cn1)C(=O)N[C@@H](CCC(=O)O)C(=O)N[C@@H](CC(C)C)C(=O)N[C@H](C(=O)N[C@H](C(=O)N[C@@H](CC(C)C)C(=O)N1CCC[C@H]1C(=O)N[C@@H](CCCNC(=N)N)C(=O)N[C@H](C(=O)N[C@@H](CCC(=O)O)C(=O)N[C@H](C(=O)NCC(=O)N[C@H](C(=O)NCC(=O)N[C@H](C(=O)N1CCC[C@H]1C(N)=O)[C@@H](C)O)[C@@H](C)O)[C@@H](C)O)[C@@H](C)O)[C@@H](C)O)[C@@H](C)O [106bb, H—ASELTTAVLGRLEAELHELTTLPRTETGTGTP—NH2] (H-ASELTTAVLGRLEAELHELTTLPRTETGTGTP-NH2) | – | – | 71400

Second part, the compound after the results:

EC50 [1] [pM] | EC50 [2] [pM] | IC50 [3] [pM] | Structure (SMILES)
7 | 2 | 982 | CC(C)C[C@H](NC(=O)[C@H](CCC(=O)O)NC(=O)[C@H](Cc1c[nH]cn1)NC(=O)[C@H](CC(C)C)NC(=O)[C@H](CCC(=O)O)NC(=O)[C@H](C)NC(=O)[C@H](CO)NC(=O)[C@H](CC(C)C)NC(=O)[C@H](CCCNC(=N)N)NC(=O)CNC(=O)[C@H](CC(C)C)NC(=O)[C@@H](NC(=O)[C@H](C)NC(=O)[C@@H](NC(=O)[C@H](CO)NC(=O)[C@@H](NC(=O)[C@H](CCC(=O)O)NC(=O)[C@H](CO)NC(=O)[C@H](C)N)C(C)C)[C@@H](C)O)C(C)C)C(=O)N[C@@H](C)C(=O)N[C@H](C(=O)N[C@@H](CC(C)C)C(=O)N1CCC[C@H]1C(=O)N[C@@H](CCCNC(=N)N)C(=O)N[C@H](C(=O)N[C@@H](CCC(=O)O)C(=O)N[C@H](C(=O)NCC(=O)N[C@@H](CO)C(=O)NCC(=O)N[C@@H](CO)C(=O)N1CCC[C@H]1C(N)=O)[C@@H](C)O)[C@@H](C)O)[C@@H](C)O [86bb, H—ASEVSTAVLGRLSAELHELATLPRTETGSGSP—NH2] (H-ASEVSTAVLGRLSAELHELATLPRTETGSGSP-NH2)
8 | 4 | – | CC(C)C[C@H](NC(=O)CNC(=O)[C@H](CO)NC(=O)[C@H](C)N)C(=O)N[C@@H](CO)C(=O)N[C@H](C(=O)N[C@@H](C)C(=O)N[C@H](C(=O)N[C@@H](CC(C)C)C(=O)NCC(=O)N[C@@H](CCCNC(=N)N)C(=O)N[C@@H](CC(C)C)C(=O)N[C@@H](CO)C(=O)N[C@@H](CCC(N)=O)C(=O)N[C@@H](CCC(=O)O)C(=O)N[C@@H](CC(C)C)C(=O)N[C@@H](Cc1c[nH]cn1)C(=O)N[C@@H](CCC(=O)O)C(=O)N[C@@H](CC(C)C)C(=O)N[C@@H](CCC(N)=O)C(=O)N[C@H](C(=O)N[C@@H](Cc1ccc(O)cc1)C(=O)N1CCC[C@H]1C(=O)N[C@@H](CCCNC(=N)N)C(=O)N[C@H](C(=O)N[C@@H](CCC(=O)O)C(=O)N[C@H](C(=O)NCC(=O)N[C@@H](CO)C(=O)NCC(=O)N[C@H](C(=O)N[C@@H](Cc1ccc(O)cc1)C(N)=O)[C@@H](C)O)[C@@H](C)O)[C@@H](C)O)[C@@H](C)O)C(C)C)[C@@H](C)O [118bb, [des1, 4G, 9V, 15Q, 21Q, 23Y, 30S, 31G, 32T, 33Y]mimylin]
5 | 4 | – | CC(C)C[C@H](NC(=O)CNC(=O)[C@H](CO)NC(=O)[C@H](C)N)C(=O)N[C@@H](CO)C(=O)N[C@H](C(=O)N[C@@H](C)C(=O)N[C@H](C(=O)N[C@@H](CC(C)C)C(=O)NCC(=O)N[C@@H](CCCNC(=N)N)C(=O)N[C@@H](CC(C)C)C(=O)N[C@@H](CO)C(=O)N[C@@H](CCC(N)=O)C(=O)N[C@@H](CCC(=O)O)C(=O)N[C@@H](CC(C)C)C(=O)N[C@@H](Cc1c[nH]cn1)C(=O)N[C@@H](CCC(=O)O)C(=O)N[C@@H](CC(C)C)C(=O)N[C@@H](CCC(N)=O)C(=O)N[C@H](C(=O)N[C@@H](Cc1ccc(O)cc1)C(=O)N1CCC[C@H]1C(=O)N[C@@H](CCCNC(=N)N)C(=O)N[C@H](C(=O)N[C@@H](CCC(=O)O)C(=O)N[C@H](C(=O)NCC(=O)N[C@@H](CO)C(=O)NCC(=O)N[C@H](C(=O)N[C@@H](Cc1ccc(O)cc1)C(N)=O)[C@@H](C)O)[C@@H](C)O)[C@@H](C)O)[C@@H](C)O)[C@@H](C)O)[C@@H](C)O [124bb, [des1, 4G, 9T, 15Q, 21Q, 23Y, 30S, 31G, 32T, 33Y]mimylin] (H-ASGLSTATLGRLSQELHELQTYPRTETGSGTY-NH2; N-terminus and C-terminus assumed)

From patent US9593149B2, “Amylin and calcitonin receptor agonist” (Novo Nordisk A/S, priority 2014, dated 2017)
